{
  "source": "patent US11504358B2",
  "about": "“Extended release methazolamide formulation” (Effcon Laboratories, Inc., priority 2017, dated 2022)",
  "key": {"[1]": {"settings": "in water, alcohol and acetone; cited from earlier work"}, "[2]": {"assay": "Density of methazolamide particles", "assay_type": "physicochemical"}, "[3]": {"assay": "Methazolamide particle size testing, sonic shifter (sieves)", "assay_type": "physicochemical", "method": "(§1) Methazolamide particle size testing was performed on unmilled methazolamide particles and methazolamide particles milled in-house and by a third party vendor according to the above milling procedure. Methazolamide particle size testing was conducted using a Mastersizer laser particle size analyzer from Malvern Instruments or a sonic shifter. The results of the particle size testing for methazolamide particles milled in-house, as measured by a laser particle size analyzer, are as follows:\nThe results of the particle size testing for unmilled methazolamide particles, methazolamide particles milled in-house, and methazolamide particles milled by a third party vendor, as measured by a sonic shifter, are as follows: […]"}, "[4]": {"assay": "Methazolamide particle size testing, laser particle size analyzer", "assay_type": "physicochemical", "settings": "particles milled in-house", "method": "The following conventions apply when describing particle size distribution. D(v, 0.1) means that 10% of the particles are smaller than this diameter. D(v, 0.5) is the median particle diameter. D(v, 0.9) means that 90% of the particles are smaller than this diameter.\nas §1, with “follows: […]” for “follows:”"}},
  "data": [
    {"smiles": "CC(=O)N=c1sc(S(N)(=O)=O)nn1C", "note": "[Methazolamide, N-[5-(aminosulfonyl)-3-methyl-1,3,4-thiadiazol-2(3H)-ylidene]acetamide]", "values": [
      {"measurement": "Solubility", "setting": "[1]", "result": "slightly soluble"}
    ]},
    {"smiles": "CC(=O)/N=c1/sc(S(N)(=O)=O)nn1C", "note": "[Milled API (3rd party)]", "values": [
      {"measurement": "Bulk Density", "setting": "[2]", "result": 0.53, "unit": "g/mL"},
      {"measurement": "Trapped Density", "setting": "[2]", "result": 1.00, "unit": "g/mL"},
      {"measurement": "% Retained, Fines Collector", "setting": "[3]", "result": 15.56, "unit": "%"},
      {"measurement": "% Retained, Sieve # 20 (840 μm)", "setting": "[3]", "result": 5.15, "unit": "%"},
      {"measurement": "% Retained, Sieve # 40 (420 μm)", "setting": "[3]", "result": 6.14, "unit": "%"},
      {"measurement": "% Retained, Sieve # 80 (177 μm)", "setting": "[3]", "result": 21.88, "unit": "%"},
      {"measurement": "% Retained, Sieve # 100 (149 μm)", "setting": "[3]", "result": 17.14, "unit": "%"},
      {"measurement": "% Retained, Sieve # 140 (105 μm)", "setting": "[3]", "result": 21.90, "unit": "%"},
      {"measurement": "% Retained, Sieve # 200 (74 μm)", "setting": "[3]", "result": 12.29, "unit": "%"}
    ]},
    {"smiles": "CC(=O)/N=c1/sc(S(N)(=O)=O)nn1C", "note": "[Milled API (in-house)]", "values": [
      {"measurement": "Bulk Density", "setting": "[2]", "result": 0.56, "unit": "g/mL"},
      {"measurement": "Trapped Density", "setting": "[2]", "result": 0.99, "unit": "g/mL"},
      {"measurement": "% Retained, Fines Collector", "setting": "[3]", "result": 16.51, "unit": "%"},
      {"measurement": "% Retained, Sieve # 20 (840 μm)", "setting": "[3]", "result": 1.23, "unit": "%"},
      {"measurement": "% Retained, Sieve # 40 (420 μm)", "setting": "[3]", "result": 1.52, "unit": "%"},
      {"measurement": "% Retained, Sieve # 80 (177 μm)", "setting": "[3]", "result": 15.27, "unit": "%"},
      {"measurement": "% Retained, Sieve # 100 (149 μm)", "setting": "[3]", "result": 19.54, "unit": "%"},
      {"measurement": "% Retained, Sieve # 140 (105 μm)", "setting": "[3]", "result": 32.92, "unit": "%"},
      {"measurement": "% Retained, Sieve # 200 (74 μm)", "setting": "[3]", "result": 13.00, "unit": "%"}
    ]},
    {"smiles": "CC(=O)/N=c1/sc(S(N)(=O)=O)nn1C", "note": "[Sample 1]", "values": [
      {"measurement": "D(v, 0.1)", "setting": "[4]", "result": 42.15, "unit": "μm"},
      {"measurement": "D(v, 0.5)", "setting": "[4]", "result": 121.45, "unit": "μm"},
      {"measurement": "D(v, 0.9)", "setting": "[4]", "result": 255.75, "unit": "μm"}
    ]},
    {"smiles": "CC(=O)/N=c1/sc(S(N)(=O)=O)nn1C", "note": "[Sample 2]", "values": [
      {"measurement": "D(v, 0.1)", "setting": "[4]", "result": 47.67, "unit": "μm"},
      {"measurement": "D(v, 0.5)", "setting": "[4]", "result": 132.34, "unit": "μm"},
      {"measurement": "D(v, 0.9)", "setting": "[4]", "result": 269.30, "unit": "μm"}
    ]},
    {"smiles": "CC(=O)/N=c1/sc(S(N)(=O)=O)nn1C", "note": "[Sample 3]", "values": [
      {"measurement": "D(v, 0.1)", "setting": "[4]", "result": 48.42, "unit": "μm"},
      {"measurement": "D(v, 0.5)", "setting": "[4]", "result": 128.46, "unit": "μm"},
      {"measurement": "D(v, 0.9)", "setting": "[4]", "result": 267.26, "unit": "μm"}
    ]},
    {"smiles": "CC(=O)/N=c1/sc(S(N)(=O)=O)nn1C", "note": "[Unmilled API]", "values": [
      {"measurement": "Bulk Density", "setting": "[2]", "result": 0.92, "unit": "g/mL"},
      {"measurement": "Trapped Density", "setting": "[2]", "result": 1.03, "unit": "g/mL"},
      {"measurement": "% Retained, Fines Collector", "setting": "[3]", "result": 0.83, "unit": "%"},
      {"measurement": "% Retained, Sieve # 20 (840 μm)", "setting": "[3]", "result": 0.09, "unit": "%"},
      {"measurement": "% Retained, Sieve # 40 (420 μm)", "setting": "[3]", "result": 7.95, "unit": "%"},
      {"measurement": "% Retained, Sieve # 80 (177 μm)", "setting": "[3]", "result": 75.05, "unit": "%"},
      {"measurement": "% Retained, Sieve # 100 (149 μm)", "setting": "[3]", "result": 8.04, "unit": "%"},
      {"measurement": "% Retained, Sieve # 140 (105 μm)", "setting": "[3]", "result": 6.01, "unit": "%"},
      {"measurement": "% Retained, Sieve # 200 (74 μm)", "setting": "[3]", "result": 2.03, "unit": "%"}
    ]}
  ]
}
